IC50 and IC90 data for 37 molecules are collected here from ChEMBL document CHEMBL4483862, “Open-source discovery of chemical leads for next-generation chemoprotective antimalarials” (2018).

This assay has as its system Plasmodium berghei. The experiment in a line: Luciferase/luciferin-expressing antifolate-resistant parasites were used to infect a culture of HepG2 cells that were pre-incubated with compounds. Infected hepatocytes emit light due to the luciferase reaction. Assay results are presented as the percent inhibition of light emission compared to control. […]. In kind it is functional. To be noted: sporozoite; for IC90: read-out: LUCIFERASE INFECTION ASSAY - IC90.

[1] abbreviates: read-out: LUCIFERASE INFECTION ASSAY - IC50.

Where only a bound is given, the exact number is not on record here.

For `COc1cc(C)ccc1Oc1ccc(NC(=O)NC2CCN3CCCCC23)cn1` (centres undefined), the IC90 was above 10 µM. Also, under setting [1], the IC50 was above 10 µM.

Turning to `Cc1cc(C(=O)Cn2cnc3ccccc3c2=O)c(C)n1-c1ccccc1`, the concentration for an effect of 90% (IC90) is above 10 µM. Also, the IC50 (HEPG2TOX_HILL_SLOPE 1.21, HEPG2TOX_R_SQUARED 0.806, PBLUC_HILL_SLOPE 1.3, PBLUC_R_SQUARED 0.604, read-out: LUCIFERASE INFECTION ASSAY - IC50) was 2.96 µM.

For `O=C(NC1CC1)c1ccc(-c2cnc3c(NCc4ccc5c(c4)OCO5)nccn23)cc1`, the IC90 is 2.99 µM. Moreover, for the setting “HEPG2TOX_HILL_SLOPE 2.15, HEPG2TOX_R_SQUARED 0.624, PBLUC_HILL_SLOPE 12.5, PBLUC_R_SQUARED 0.564, read-out: LUCIFERASE INFECTION ASSAY - IC50”, the IC50 was 2.51 µM.

In the case of `O=C1C(=O)N(Cc2cc3c(cc2Cl)OCO3)c2ccc(Cl)cc21`, the IC90 is above 9.42 µM. For the same molecule, the IC50 (FFLUC_HILL_SLOPE 2.77, FFLUC_R_SQUARED 0.777, PBLUC_HILL_SLOPE 11.7, PBLUC_R_SQUARED 0.0264, read-out: LUCIFERASE INFECTION ASSAY - IC50) was 8.5 µM.

Turning to `CC(C)(C)c1ccc(-c2nnc(SCc3c(Cl)cccc3Cl)n2Cc2ccco2)cc1`, the IC90 was above 6.99 µM. Also, the IC50 under setting [1] was 3.43 µM.

For the molecule `Cc1nc(-c2ccc(NC(=O)c3cnn(-c4ccccc4F)c3C(F)(F)F)cc2)cs1`, the IC90 is above 10 µM. Further, the IC50 (PBLUC_HILL_SLOPE 2.7, PBLUC_R_SQUARED 0.26, read-out: LUCIFERASE INFECTION ASSAY - IC50) is 7.76 µM.

For `CCOC(=O)c1c(C)[nH]c(C(=O)Nc2nc(-c3c(C)cc(C)cc3C)cs2)c1C`, the IC90 is 9.66 µM. Besides, the IC50 (FFLUC_HILL_SLOPE 12.1, FFLUC_R_SQUARED 0.461, HEPG2TOX_HILL_SLOPE 1.22, HEPG2TOX_R_SQUARED 0.98, PBLUC_HILL_SLOPE 1.25, PBLUC_R_SQUARED 0.783, read-out: LUCIFERASE INFECTION ASSAY - IC50) is 1.65 µM.

For `O=C(CCN1CCN(C(c2ccccc2)c2ccccc2)CC1)NNC(=O)c1ccc(I)cc1`, the IC90 was above 10 µM. The IC50 under setting [1] was above 10 µM.

For `CSc1sc(C(=O)N/N=C/c2ccccc2)c2c1C1(CCC2)SCCS1`, the IC90 is above 7.85 µM. In addition, the IC50 (PBLUC_HILL_SLOPE 1.27, PBLUC_R_SQUARED 0.257, read-out: LUCIFERASE INFECTION ASSAY - IC50) turned out to be 5.56 µM.

For `Cc1n[nH]c(Nc2cc(Cl)cc(Cl)c2)nc1=O`, the 90% effect concentration (IC90) was above 12.2 µM. The IC50 under setting [1] is above 12.2 µM.

For the molecule `O=C(NCCCn1cnc2ccccc21)c1[nH]nc2ccccc12`, the IC90 was above 10 µM. In addition, under “HEPG2TOX_HILL_SLOPE 14.9, HEPG2TOX_R_SQUARED 0.872, PBLUC_HILL_SLOPE 4.15, PBLUC_R_SQUARED 0.429, read-out: LUCIFERASE INFECTION ASSAY - IC50”, the IC50 is 6.32 µM.

In the case of `CN(Cc1ccc(Br)s1)c1ncccc1C(N)=O`, the IC90 was above 2 µM. Moreover, the IC50 under setting [1] was above 2 µM.

For `Cn1nnnc1Sc1ncnc2cc(-c3ccc(F)cc3)sc12`, the IC90 is above 10 µM. Under setting [1], the IC50 is above 10 µM.

Regarding `COc1ccc(-c2cnc3ccc(Cc4ccccc4)nn23)cc1OC`, the IC90 amounted to 3.83 µM. The half-maximal inhibitory concentration (IC50) (HEPG2TOX_HILL_SLOPE 1.09, HEPG2TOX_R_SQUARED 0.956, PBLUC_HILL_SLOPE 11.4, PBLUC_R_SQUARED 0.574, read-out: LUCIFERASE INFECTION ASSAY - IC50) worked out at 3.16 µM.

For `CC(C)[C@H](NC(=O)c1ccccc1Cl)C(=O)Nc1nc(-c2ccccn2)cs1`, the IC90 came out at 6.36 µM. Also, the IC50 (HEPG2TOX_HILL_SLOPE 4.61, HEPG2TOX_R_SQUARED 0.937, PBLUC_HILL_SLOPE 2.78, PBLUC_R_SQUARED 0.749, read-out: LUCIFERASE INFECTION ASSAY - IC50) was found to be 2.89 µM.

Take `Cc1ccc(NC2=C(Cl)C(=O)c3ccccc3C2=O)cc1`: the IC90 was 7.81 µM. The IC50 (HEPG2TOX_HILL_SLOPE 4.14, HEPG2TOX_R_SQUARED 0.984, PBLUC_HILL_SLOPE 5.35, PBLUC_R_SQUARED 0.565, read-out: LUCIFERASE INFECTION ASSAY - IC50) stood at 5.18 µM.

For `CN(c1nc2ccccc2nc1O)C1CCCCC1`, the IC90 was above 10 µM. Further, the IC50 under setting [1] was above 10 µM.

Turning to `NS(=O)(=O)c1ccc(S(=O)(=O)N2CCCN(Cc3ccc(C(F)(F)F)cc3)CC2)cc1`, the IC90 is above 10 µM. For the same molecule, the 50% inhibitory concentration (IC50) (HEPG2TOX_HILL_SLOPE 4.06, HEPG2TOX_R_SQUARED 0.95, PBLUC_HILL_SLOPE 2.74, PBLUC_R_SQUARED 0.121, read-out: LUCIFERASE INFECTION ASSAY - IC50) amounted to 6.92 µM.

With `Cc1cc(C(C)(C)C)ccc1OC(=O)c1sc2nc3n(c(=O)c2c1C)CCCCC3`, the IC90 was above 10 µM. Further, the IC50 under setting [1] is above 10 µM.

For `O=c1c(Cl)c(Cl)cnn1CCOc1cccc(Br)c1`, the IC90 was above 10 µM. In addition, the IC50 under setting [1] was above 10 µM.

With `Cc1oc(-c2ccc(Cl)cc2)cc1C(=O)Nc1cccc(C(F)(F)F)c1`, the IC90 is above 8.69 µM. In addition, the half-inhibitory concentration (IC50) under setting [1] was above 8.69 µM.

With `COc1cc2ccccc2cc1C(=O)OC(C(=O)Nc1ccc(C)c(Cl)c1)c1ccccc1` (centres undefined), the IC90 was above 10 µM. The IC50 (FFLUC_HILL_SLOPE 12, FFLUC_R_SQUARED 0.255, PBLUC_HILL_SLOPE 12.6, PBLUC_R_SQUARED 0.137, read-out: LUCIFERASE INFECTION ASSAY - IC50) is above 10 µM.

`c1ccc(C(Nc2ncnc3ccsc23)c2cccs2)cc1` (centres undefined): the IC90 amounted to 2.58 µM. The IC50 under setting [1] came out at 1.14 µM.

For `CCOc1cccc(-c2cn3c(-c4cnn(C)c4)cnc3cn2)c1`, the IC90 was above 10.3 µM. Moreover, for the setting “HEPG2TOX_HILL_SLOPE 7.89, HEPG2TOX_R_SQUARED 0.0776, PBLUC_HILL_SLOPE 1.98, PBLUC_R_SQUARED 0.483, read-out: LUCIFERASE INFECTION ASSAY - IC50”, the IC50 stood at 3.78 µM.

Take `COc1cc(Cl)c(C)cc1-n1c(SC(C(C)=O)c2ccccc2)nc2ccccc2c1=O` (centres undefined): the IC90 is above 10 µM. The IC50 (FFLUC_HILL_SLOPE 3.43, FFLUC_R_SQUARED 0.242, HEPG2TOX_HILL_SLOPE 4.83, HEPG2TOX_R_SQUARED 0.785, PBLUC_HILL_SLOPE 3.87, PBLUC_R_SQUARED 0.683, read-out: LUCIFERASE INFECTION ASSAY - IC50) was found to be 6.65 µM.

On to `FC(F)(F)c1cccc(NC(=S)Nc2cccnc2N2CCC(C(F)(F)F)CC2)c1`, for which the IC90 was above 7.36 µM. Under setting [1], the IC50 is above 7.36 µM.

Turning to `CCOc1ccc(-n2c(Sc3ccc4nnnn4n3)nnc2-c2ccc(C(C)(C)C)cc2)cc1`, the IC90 came out at 9.4 µM. Further, under “FFLUC_HILL_SLOPE 16.9, FFLUC_R_SQUARED 0.24, PBLUC_HILL_SLOPE 5, PBLUC_R_SQUARED 0.626, read-out: LUCIFERASE INFECTION ASSAY - IC50”, the IC50 turned out to be 6.06 µM.

`CC(=O)c1cccc(-c2cnc3ccc(-c4ccc5c(c4)OCO5)nn23)c1`: the IC90 stood at 7.88 µM. The IC50 (HEPG2TOX_HILL_SLOPE 1.55, HEPG2TOX_R_SQUARED 0.983, PBLUC_HILL_SLOPE 1.3, PBLUC_R_SQUARED 0.851, read-out: LUCIFERASE INFECTION ASSAY - IC50) amounted to 1.46 µM.

Regarding `O=C(Cn1ncc(Br)c(Br)c1=O)C12CC3CC(CC(C3)C1)C2`, the IC90 is above 10 µM. Under “HEPG2TOX_HILL_SLOPE 11, HEPG2TOX_R_SQUARED 0.947, PBLUC_HILL_SLOPE 1.04, PBLUC_R_SQUARED 0.291, read-out: LUCIFERASE INFECTION ASSAY - IC50”, the IC50 stood at 2.75 µM.

On to `COc1ccc(C(=O)C(/C=N/N)=N/Nc2cc(C)cc(C)c2)cc1`, for which the IC90 came out at 5.98 µM. The IC50 (HEPG2TOX_HILL_SLOPE 2.41, HEPG2TOX_R_SQUARED 0.984, PBLUC_HILL_SLOPE 5.05, PBLUC_R_SQUARED 0.51, read-out: LUCIFERASE INFECTION ASSAY - IC50) turned out to be 3.87 µM.

With `O=C(CC(=O)Nc1ccc(Cl)cn1)Nc1ccc(Cl)c(Cl)c1`, the IC90 is 8.05 µM. The IC50 (HEPG2TOX_HILL_SLOPE 5.65, HEPG2TOX_R_SQUARED 0.964, PBLUC_HILL_SLOPE 4.27, PBLUC_R_SQUARED 0.168, read-out: LUCIFERASE INFECTION ASSAY - IC50) came to 4.81 µM.

For `Cc1ccc[n+](CC(=O)c2ccc3c(c2)Cc2ccccc2-3)c1C`, the IC90 was above 8.37 µM. In addition, the IC50 (PBLUC_HILL_SLOPE 0.83, PBLUC_R_SQUARED 0.466, read-out: LUCIFERASE INFECTION ASSAY - IC50) was above 8.37 µM.

As for `O=C(Nc1ccccc1C(=O)Nc1nc2ccccc2[nH]1)c1cccs1`, the IC90 was above 10 µM. Also, under “HEPG2TOX_HILL_SLOPE 2.23, HEPG2TOX_R_SQUARED 0.95, read-out: LUCIFERASE INFECTION ASSAY - IC50”, the IC50 is above 10 µM.

As to `CCOC(=O)c1cc(C#N)c(Sc2nnc(SCC3CC3)s2)nc1C(F)(F)F`, the IC90 is above 7.39 µM. Moreover, where the note is “HEPG2TOX_HILL_SLOPE 8.92, HEPG2TOX_R_SQUARED 0.488, read-out: LUCIFERASE INFECTION ASSAY - IC50”, the IC50 is above 7.39 µM.

For `CC(C)c1ccc(CSc2nnc(CC3CCS(=O)(=O)C3)o2)cc1` (centres undefined), the IC90 was above 10 µM. Also, under setting [1], the IC50 was above 10 µM.

On to `NS(=O)(=O)c1ccc(CCNc2nn3c(-c4cccs4)cnc3s2)cc1`, for which the IC90 was above 8.14 µM. Further, the IC50 (HEPG2TOX_HILL_SLOPE 6.48, HEPG2TOX_R_SQUARED 0.0577, read-out: LUCIFERASE INFECTION ASSAY - IC50) is above 8.14 µM.

For the molecule `Cc1cc(C(=O)Cn2c(CO)nc3ccccc32)c(C)n1-c1ccccc1`, the IC90 is above 10 µM. Under “HEPG2TOX_HILL_SLOPE 1.51, HEPG2TOX_R_SQUARED 0.587, PBLUC_HILL_SLOPE 1.38, 1.35, PBLUC_R_SQUARED 0.541, 0.883, read-out: LUCIFERASE INFECTION ASSAY - IC50”, the IC50 came to 3.87 µM.
